Source: the NIST ThermoML archive (doi:10.1021/je034254m)

Test: excess molar enthalpy (molar enthalpy of mixing); xn = mol fraction of the nth substance listed
Conditions: Liquid, Flow calorimetry

CN1CCCC1=O [N-methylpyrrolidone] + CO
393.15 K, 1790 kPa
Conditions	excess molar enthalpy [kcal/mol]
x2 = 0.0576	-0.0354
x2 = 0.1114	-0.0657
x2 = 0.2093	-0.113
x2 = 0.2959	-0.146
x2 = 0.3732	-0.168
x2 = 0.4425	-0.18
x2 = 0.5051	-0.184
x2 = 0.5619	-0.183
x2 = 0.6136	-0.177
x2 = 0.6609	-0.167
x2 = 0.7043	-0.157
x2 = 0.7443	-0.143
x2 = 0.7813	-0.128
x2 = 0.8156	-0.113
x2 = 0.8475	-0.0968
x2 = 0.8772	-0.0817
x2 = 0.905	-0.0652
x2 = 0.931	-0.0488
x2 = 0.9554	-0.0323
x2 = 0.9784	-0.016
x2 = 0.9893	-0.00837

O=S1(=O)CCCC1 [sulfolane] + O
413.15 K, 1820 kPa
Conditions	excess molar enthalpy [kcal/mol]
x2 = 0.0621	0.0968
x2 = 0.1183	0.17
x2 = 0.2159	0.284
x2 = 0.3676	0.405
x2 = 0.48	0.443
x2 = 0.5667	0.445
x2 = 0.6355	0.428
x2 = 0.6915	0.401
x2 = 0.738	0.37
x2 = 0.7772	0.337
x2 = 0.8395	0.272
x2 = 0.8648	0.241
x2 = 0.887	0.211
x2 = 0.9067	0.181
x2 = 0.9243	0.152
x2 = 0.9401	0.125
x2 = 0.9544	0.0985
x2 = 0.9674	0.0727
x2 = 0.9792	0.0476
x2 = 0.99	0.0232
